Experiments:
[1] = tested on: subjects fed a high-fat diet; conditions: daily administration, Pruet-Marcassus et al., 2003; cited from earlier work
middle-aged male rats = conditions: cited from earlier work
[2] = tested on: patients with a diagnosis of migraine with or without aura; conditions: daily treatment; Peres et al., 2004; cited from earlier work
[3] = tested on: patients with a diagnosis of fibromyalgia; conditions: cited from earlier work
male Sprague-Dawley rats = assay: open field test; assay type: in vivo; conditions: for rearing behavior compared to vehicle controls: FIG. 1; for immobility compared to controls: FIG. 2
Experimental: Subjects were male Sprague-Dawley rats weighing 250-300 g housed in a temperature- and humidity-controlled vivarium on a 12:12 hr light:dark cycle with food and water available ad libitum. Behavioral testing occurred 2 hrs after lights out. […] All treatments were administered to an animal once (no repeat drug administration) with 8 animals per treatment. The open filed testing procedure has been previously described (Herman et al., 2003). Briefly, the open field apparatus is a 36×36-inch white PLEXIGLAS® enclosure, divided into 36 squares of equal size. Animals are placed into the apparatus and allowed to explore the environment for 5 min. Sessions are videotaped and scored for behavior by an investigator blinded to the treatment condition. Behavior is scored for the two primary outcome measures: rearing and immobility, as well as grooming; and secondary measures of sedation: total mobility and quadrant crossing.

TBI rats = assay: traumatic brain injury, controlled cortical impact model; assay type: in vivo; conditions: 10 mg/kg intraperitoneally, two doses (15 minutes and 24 hours after TBI), Day 7 morphometry, P=0.01, FIG. 3
From the text: Subjects were male Sprague-Dawley rats weighing 250-300 g housed in a temperature- and humidity-controlled vivarium on a 12:12 hr light:dark cycle with food and water available ad libitum. Animals were subjected to TBI using controlled cortical impact model. (Sullivan et al. 2000a). Animals were anesthetized and their brain cortex exposed. Employing a pneumatically-controlled impactor rod with a 5 mm diameter beveled tip, one of the cortices was compressed at 3.5 m/sec to a predetermined depth of 1.5 mm, resulting in TBI. The other cortex was not injured and left intact. Following the experimental TBI protocol, the animals were randomly divided into two groups and were either treated with vehicle or 10 mg/kg of β-methyl-6-chloromelatonin intraperitoneally (two doses; first dose 15 minutes after TBI and the second 24 hours later). The animals were allowed to recover for 168 hours (seven days). On Day 7, quantitative morphometric image analysis was employed to assess cortical tissue damage. Quantitative morphometry is considered to be the “gold standard” for assessing neuroprotectant drug efficacy in TBI (Sullivan et al., 1999; Sullivan et al., 2000a; Sullivan et al., 2000b).

[4] = tested on: TNF-α stimulated EOC-20 cells; assay: nitrite and PGE2 in TNF-α stimulated EOC-20 microglial cells; assay type: cell-based; conditions: 20 ng/ml TNF-α-stimulated EOC-20 cells, dose-dependent manner
From the text: The compounds of the present invention are effective in treating neurodegenerative diseases, such as amyotrophic lateral sclerosis (ALS), Alzheimer's disease (AD), Huntington's disease (HD) and Parkinson's disease (PD).
The experiments consisted of treating TNF-α stimulated EOC-20 cells with increasing concentrations of β-methyl-6-chloromelatonin followed by measuring neuroinflammation-associated markers. Neuroinflammation activates microglia to produce proinflammatory cytokines, reactive oxygen species (ROS) and reactive nitrogen species (RNS) in ALS, AD, HD and PD-associated pathophysiology (Deckel, 2001; Cacquevel, 2004; McGeer and McGeer, 2004; Sargsyanet al., 2005). Increase in prostaglandin (PGE2), a potent inflammatory mediator, and nitrite, an indirect measure of RNS production, indicates inflammation-induced neurodegeneration in ALS, AD, HD and PD patients (Milstien et al., 1994; Tohgi et al., 1999; Deckel, 2001 ;Cacquevel, 2004).

IHI mice = assay: ischemia-hypoxia injury (IHI) model of cerebrovascular disease; assay type: in vivo; conditions: 10 and 100 mg/kg intraperitoneally 30 minutes before and 30 minutes after hypoxia, Day 3, dose-dependent, FIG. 6
Experimental: Subjects were 8-12 week old adult male C57B116 mice housed in a temperature- and humidity-controlled vivarium on a 12:12 hr light:dark cycle with food and water available ad libitum. The mice were subjected to ischemia-hypoxia injury (IHI). The injury was rendered by permanently occluding the right common carotid artery and delivering hypoxic gas (7.5% O2) for 30 minutes employing a gas mask under anesthesia. The animal's body temperature was maintained at 36.5-37.5° C. throughout the experiment. For drug efficacy studies, β-methyl-6-chloro-melatonin was administered intraperitoneally 30 minutes before and 30 minutes after hypoxia at doses of 0 (vehicle only), 10 and 100 mg/kg. On Day 3 after injury, quantitative morphometric image analysis was employed to assess infarction size in Nissl-stained brain sections isolated from the animals. β-methyl-6-chloromelatonin administration caused a 33-40% reduction in brain infarct size in IHI mice compared to vehicle-treated IHI mice (FIG. 6). The protection conferred by β-methyl-6-chloromelatonin was dose-dependent.

melatonin receptors = conditions: Mulchahey, et al., 2004; cited from earlier work
humans = conditions: 20 mg to 100 mg per day, Zemlan et al., 2005; cited from earlier work
[5] = 10 mg/kg i.p. 1 hr prior to open field testing
[6] = 100 mg/kg i.p. 1 hr prior to open field testing
[7] = 10 and 100 mg/kg i.p., P values>0.10

| SMILES | body weight [1] | body weight (middle-aged male rats; daily treatment, middle-aged obesity, Rasmussen et al., 1999) | fat content (middle-aged male rats; middle-age obesity, as opposed to lean body mass) | headache frequency [2] | headache intensity [2] | core symptoms of fibromyalgia (severity of pain, tender point count, patient and physician ratings) ([3]; 20 patients treated for 30 days, Citera et al., 2000) | patient-reported improvement including lack of pain and fatigue ([3]; daily treatment, end of treatment, Acuna-Castroviejo et al., 2006) | rearing behavior compared to vehicle controls (male Sprague-Dawley rats; [5]) | immobility compared to controls (male Sprague-Dawley rats; [5]) | rearing behavior compared to vehicle controls (male Sprague-Dawley rats; [6]) | immobility compared to controls (male Sprague-Dawley rats; [6]) | sedative effect: quadrant crossings (male Sprague-Dawley rats; [7]) | sedative effect: total mobility (male Sprague-Dawley rats; [7]) | reduction in damaged cortical tissue compared to vehicle-treated TBI rats (TBI rats) [%] | nitrite production ([4]; P<0.01, FIG. 4) | increase in PGE2 levels ([4]; P<0.01, FIG. 5) | reduction in brain infarct size compared to vehicle-treated IHI mice (IHI mice) | binding to melatonin receptors (melatonin receptors) | side effects compared to placebo treatment (humans) |
| --- | --- | --- | --- | --- | --- | --- | --- | --- | --- | --- | --- | --- | --- | --- | --- | --- | --- | --- | --- |
| COc1ccc2[nH]cc(CCNC(C)=O)c2c1 [melatonin] | significantly decreased | significantly decreased | significant decrease | significant decrease | decrease | Significant improvement | significant improvement | – | – | – | – | – | – | – | – | – | – | – | – |
| COc1cc2c([C@@H](C)CNC(C)=O)c[nH]c2cc1Cl [β-methyl-6-chloromelatonin, (R)-N-[2-(6-chloro-5-methoxy-1H-indol-3-yl)propyl]acetamide] | – | – | – | – | – | – | – | significantly increased | significantly decreased | significantly increased | significantly decreased | no significant drug effect | no significant drug effect | 68 | blocked | blocked | 33-40% | high affinity | no significant side effects |

From patent publication US20060223877A1, “Methods of treatment utilizing certain melatonin derivatives” (priority 2005, published 2006)
